The term IC50 denotes the concentration at which inhibition is half-maximal.

Entries after “also recorded” stand apart in the source; their conditions may differ. Where two headings read alike, the source gives them in different places. A value given as a limit tells only on which side of the number the result lay.

Assay type in all cases: cell-based
For one series, the target named is T1, hOATP1B1 (Homo sapiens, UniProt Q9Y6L6).
T1 sequence (Q9Y6L6 1-691): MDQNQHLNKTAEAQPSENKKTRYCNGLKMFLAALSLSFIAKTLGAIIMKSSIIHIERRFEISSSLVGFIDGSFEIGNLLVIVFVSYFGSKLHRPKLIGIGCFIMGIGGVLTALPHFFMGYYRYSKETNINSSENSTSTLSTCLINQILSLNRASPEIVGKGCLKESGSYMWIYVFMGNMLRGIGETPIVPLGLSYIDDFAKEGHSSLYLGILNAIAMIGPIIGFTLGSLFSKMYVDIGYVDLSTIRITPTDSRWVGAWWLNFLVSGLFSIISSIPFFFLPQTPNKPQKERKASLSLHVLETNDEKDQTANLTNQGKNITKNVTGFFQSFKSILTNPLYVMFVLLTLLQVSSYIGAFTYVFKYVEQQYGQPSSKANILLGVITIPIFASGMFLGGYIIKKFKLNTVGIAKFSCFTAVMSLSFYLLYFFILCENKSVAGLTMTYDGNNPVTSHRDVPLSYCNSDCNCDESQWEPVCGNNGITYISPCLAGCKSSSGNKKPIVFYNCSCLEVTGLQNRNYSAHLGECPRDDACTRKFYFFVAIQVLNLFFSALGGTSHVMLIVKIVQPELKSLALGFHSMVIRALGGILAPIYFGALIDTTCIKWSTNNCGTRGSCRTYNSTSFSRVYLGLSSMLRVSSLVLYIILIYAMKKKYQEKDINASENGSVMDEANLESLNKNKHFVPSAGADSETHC
Put plainly: cis-inhibition of hOATP1B1-mediated E1S uptake in HEK293 cells. Also noted: expressed in transfected cells; host or cells: HEK-293, stably transfected. The following applies: 10 µM drug; for Inhibitory effect on hOATP1B1-mediated E1S uptake: 0.01 µM [3H]-E1S, 1 min; for inhibition at 1 min, 10 µM: human, HEK293 cells expressing hOATP1B1, probe 0.01 µM [3H]-E1S, read-out: Inhibitory effect on hOATP1B1-mediated E1S uptake. The method, then:
(§1) Inhibitory effects were calculated as a percentage of the net-uptake rates.
(§2) The means ± average deviation (AD, for N = 2) were calculated from two experiments on two different days. The significance as a p-value was calculated using Student’s t-test in Microsoft Excel.

Another series has as its target T2, hOATP1B3 (Homo sapiens, UniProt Q9NPD5).
T2 sequence (Q9NPD5 1-702): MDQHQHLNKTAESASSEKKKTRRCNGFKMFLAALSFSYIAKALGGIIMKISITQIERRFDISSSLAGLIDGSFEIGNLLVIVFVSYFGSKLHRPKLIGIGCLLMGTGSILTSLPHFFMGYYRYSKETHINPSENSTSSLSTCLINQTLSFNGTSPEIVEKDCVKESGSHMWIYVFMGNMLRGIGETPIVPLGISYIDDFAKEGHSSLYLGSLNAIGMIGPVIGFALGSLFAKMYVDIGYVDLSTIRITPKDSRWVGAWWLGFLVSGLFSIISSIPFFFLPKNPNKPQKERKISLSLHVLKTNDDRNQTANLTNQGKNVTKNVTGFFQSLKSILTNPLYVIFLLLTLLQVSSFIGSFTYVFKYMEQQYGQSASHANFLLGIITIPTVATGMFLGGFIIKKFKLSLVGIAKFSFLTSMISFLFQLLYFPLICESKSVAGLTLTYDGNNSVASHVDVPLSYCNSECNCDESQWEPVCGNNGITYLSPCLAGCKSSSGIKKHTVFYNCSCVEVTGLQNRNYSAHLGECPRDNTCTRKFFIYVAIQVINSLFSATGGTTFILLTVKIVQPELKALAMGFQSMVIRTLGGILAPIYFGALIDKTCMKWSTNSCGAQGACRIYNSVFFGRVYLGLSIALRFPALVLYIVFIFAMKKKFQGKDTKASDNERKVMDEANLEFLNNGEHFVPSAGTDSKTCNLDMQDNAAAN
Put plainly: cis-inhibition of hOATP1B3-mediated TCA uptake in HEK293 cells. Also noted: expressed in transfected cells; host or cells: HEK-293, stably transfected. Particulars: 10 µM drug; for Inhibitory effect on hOATP1B3-mediated TCA uptake: 1 µM TCA, 10 min; for inhibition at 10 min, 10 µM: human, HEK293 cells expressing hOATP1B3, probe 1 µM TCA (containing 0.01 µM [3H]-TCA), Inhibitory effect on hOATP1B3-mediated TCA uptake. The method, then: as §1, §2

A further series addresses T3, mOATP1B2 (Mus musculus, UniProt Q9JJL3).
T3 construct: The full-length mOATP1B2 and rOATP1B2 consist of 689 and 678 amino acids
T3 sequence (Q9JJL3 1-689): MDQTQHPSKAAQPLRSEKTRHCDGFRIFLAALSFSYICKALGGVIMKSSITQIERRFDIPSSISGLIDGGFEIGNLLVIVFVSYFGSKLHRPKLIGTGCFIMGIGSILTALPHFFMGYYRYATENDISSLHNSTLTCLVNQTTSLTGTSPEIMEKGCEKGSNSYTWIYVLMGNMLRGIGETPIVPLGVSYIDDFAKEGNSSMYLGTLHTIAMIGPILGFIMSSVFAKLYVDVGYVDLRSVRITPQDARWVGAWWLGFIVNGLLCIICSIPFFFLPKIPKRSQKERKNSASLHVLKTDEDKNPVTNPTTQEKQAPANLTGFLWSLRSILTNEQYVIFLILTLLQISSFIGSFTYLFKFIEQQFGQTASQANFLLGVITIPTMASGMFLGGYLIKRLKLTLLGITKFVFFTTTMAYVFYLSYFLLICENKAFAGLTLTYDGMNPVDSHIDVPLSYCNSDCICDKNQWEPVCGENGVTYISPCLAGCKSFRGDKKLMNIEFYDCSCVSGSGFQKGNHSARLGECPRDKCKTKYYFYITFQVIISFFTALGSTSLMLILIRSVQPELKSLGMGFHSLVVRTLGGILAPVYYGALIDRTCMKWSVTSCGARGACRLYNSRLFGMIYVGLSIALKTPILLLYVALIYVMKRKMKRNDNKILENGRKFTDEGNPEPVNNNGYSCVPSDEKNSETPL
Put plainly: cis-inhibition of mOATP1B2-mediated E1S or TCA uptake in HEK293 cells. The procedure: Inhibition experiments with mOATP1B2 and rOATP2B1 were carried out in triplicate as cis-inhibition. […] Inhibitory effects were calculated as a percentage of the net-uptake rates. […] The means ± average deviation (AD, for N = 2) were calculated from two experiments on two different days. The significance as a p-value was calculated using Student's t-test in Microsoft Excel.

[1] abbreviates: HEK293, 10 µM drug, 1 µM [3H]-E1S, 1 min, read-out: Inhibitory effect on mOATP1B2-mediated E1S uptake.
Where [2] appears, read: HEK293, read-out: Inhibitory effect on mOATP1B2-mediated TCA uptake, 10 µM drug, 1 µM [3H]-TCA, 1 min.
The mark [3] stands for this setting: HEK293, read-out: Inhibitory effect on mOATP1B2-mediated substrate uptake (summary over E1S and TCA), 10 µM drug, substrates E1S and TCA not separated.

As for `CC(C)CN(C[C@@H](O)[C@H](Cc1ccccc1)NC(=O)O[C@H]1CCOC1)S(=O)(=O)c1ccc(N)cc1` [Amprenavir, amprenavir], the “Inhibitory effect on hOATP1B1-mediated E1S uptake” value on hOATP1B1 is recorded as −1%; at hOATP1B1 (listed as amprenavir), “less than 50%”. For the same molecule, the “Inhibitory effect on hOATP1B3-mediated TCA uptake” value is reported as 21% at hOATP1B3 and “less than 50%” at hOATP1B3 (listed as amprenavir). Moreover, the inhibition at 10 µM on mOATP1B2 (setting [1]) was 12%; on mOATP1B2 (setting [2]), 32%; on mOATP1B2 (setting [3]) it was below 50%.

With `CC(=O)N1CCN(c2ccc(OCC3COC(Cn4ccnc4)(c4ccc(Cl)cc4Cl)O3)cc2)CC1` (centres unmarked) [Ketoconazole, ketoconazole], the “Inhibitory effect on hOATP1B1-mediated E1S uptake” value at hOATP1B1 is 25%; on hOATP1B1 (listed as ketoconazole), “less than 50%”. The “Inhibitory effect on hOATP1B3-mediated TCA uptake” value on hOATP1B3 is reported as 23%; on hOATP1B3 (listed as ketoconazole) it was “less than 50%”. Moreover, the inhibition at 10 µM is 41% on mOATP1B2 (setting [1]), 29% at mOATP1B2 (setting [2]) and below 50% on mOATP1B2 (setting [3]).

For the molecule `CO[C@H]1/C=C/O[C@@]2(C)Oc3c(C)c(O)c4c(O)c(c(/C=N/N5CCN(C)CC5)c(O)c4c3C2=O)NC(=O)/C(C)=C\C=C\[C@H](C)[C@H](O)[C@@H](C)[C@@H](O)[C@@H](C)[C@H](OC(C)=O)[C@@H]1C` [Rifampicin, rifampicin], at hOATP1B1, the inhibition at 1 min, 10 µM is 59%. Moreover, the inhibition at 10 min, 10 µM against hOATP1B3 is 104%. Besides, the IC50 at mOATP1B2 (1 µM [3H]-E1S, 1 min, read-out: IC50, mOATP1B2-mediated E1S uptake) is 9.6 µM; at mOATP1B2 (IC50, mOATP1B2-mediated TCA uptake, 1 µM [3H]-TCA, 1 min), 7.7 µM. Moreover, on mOATP1B2 (10 µM drug), the “difference in inhibition between mOATP1B2 and rOATP1B2” value is above 30%. The inhibition at 10 µM is 44% on mOATP1B2 (setting [1]), 53% at mOATP1B2 (setting [2]) and at least 50% on mOATP1B2 (setting [3]).

As to `CC(C)c1nc(N(C)S(C)(=O)=O)nc(-c2ccc(F)cc2)c1/C=C/[C@@H](O)C[C@@H](O)CC(=O)O` [Rosuvastatin, rosuvastatin], on hOATP1B1, the inhibition at 1 min, 10 µM was 16%. Further, the inhibition at 10 min, 10 µM against hOATP1B3 came out at 24%. Also, the inhibition at 10 µM at mOATP1B2 (setting [1]) is 50%; on mOATP1B2 (setting [2]), 52%; on mOATP1B2 (setting [3]), at least 50%.

`CCCCC1(CCCC)CN(c2ccccc2)c2cc(SC)c(OCC(=O)N[C@@H](C(=O)N[C@@H](CC)C(=O)O)c3ccc(O)cc3)cc2S(=O)(=O)N1` [Odevixibat, odevixibat]: the “Inhibitory effect on hOATP1B1-mediated E1S uptake” value at hOATP1B1 is reported as “completely inhibited; also recorded: complete inhibition”. Also, at hOATP1B1, the inhibition at 1 min, 10 µM came out at 96%. The “Inhibitory effect on hOATP1B3-mediated TCA uptake” value at hOATP1B3 is “completely inhibited; also recorded: complete inhibition”. For the same molecule, the inhibition at 10 min, 10 µM against hOATP1B3 amounted to 102%. Besides, the results for the inhibition at 10 µM at mOATP1B2 (setting [1]), at mOATP1B2 (setting [2]) and on mOATP1B2 (setting [3]) were 69%, 54% and 54 to 82%, respectively.

In the case of `Clc1ccccc1C(c1ccccc1)(c1ccccc1)n1ccnc1` [Clotrimazole, clotrimazole], on hOATP1B1, the “Inhibitory effect on hOATP1B1-mediated E1S uptake” value is listed as “did not inhibit” and the inhibition at 1 min, 10 µM turned out to be 10%. At hOATP1B3, the “Inhibitory effect on hOATP1B3-mediated TCA uptake” value is recorded as “did not inhibit” and the inhibition at 10 min, 10 µM was -44%. In addition, the “Inhibitory effect on mOATP1B2-mediated substrate uptake (summary over E1S and TCA)” value at mOATP1B2 (10 µM drug, substrates E1S and TCA not separated) is listed as “no inhibitory properties; also recorded: did not inhibit”. Also, the inhibition at 10 µM on mOATP1B2 (setting [1]) was 6%. In addition, on mOATP1B2 (setting [2]), the inhibition at 10 µM was -2%.

Source of the values: PMC12846068, “Insights into Transport Function of the Murine Organic Anion-Transporting Polypeptide OATP1B2 by Comparison with Its Rat and Human Orthologues” (Toxics, 2025).
